Measured values taken from EP4603105A1, “PHARMACEUTICAL COMPOSITION CONTAINING CYCLIC COMPOUND HAVING SELECTIVE KRAS INHIBITORY EFFECT AGAINST HRAS AND NRAS” (CHUGAI SEIYAKU KABUSHIKI KAISHA, priority 2022, dated 2024).
Where a SMILES comes first, the peptide text is derived from it. Bridges are numbered along the chain shown (N, C = ends). [ ]: non-standard residue; d: D form. The star is where a group is joined. hPhe(3-Cl-4-CF3) = N[C@@H](CCc1ccc(C(F)(F)F)c(Cl)c1)C(=O)O; NPrPhe(4-CF3) = CCCN[C@@H](Cc1ccc(C(F)(F)F)cc1)C(=O)O; NMeGly(cPent) = CN[C@H](C(=O)O)C1CCCC1; NMeNva(3-Et) = CCC(CC)[C@H](NC)C(=O)O; Hyp = O=C(O)[C@@H]1C[C@@H](O)CN1; NMeD = CN[C@@H](CC(=O)O)C(=O)O; NMeL = CN[C@@H](CC(C)C)C(=O)O; Morpholide = C1CN(*)CCO1; NMeA = CN[C@@H](C)C(=O)O; Ac5c = NC1(C(=O)O)CCCC1; Aze = O=C(O)[C@@H]1CCN1; Ac4c = NC1(C(=O)O)CCC1; NEtG = CCNCC(=O)O; Sar = CNCC(=O)O

How the values were obtained:
HRAS wild-type protein = HRAS wild-type protein (Homo sapiens, UniProt P01112); experiment: Binding to HRAS by surface plasmon resonance (SPR), KD and KD ratio to KRAS
Method in brief: (§1)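 Running buffer contained 10 µM GDP and 10 mM MgCl2 to keep RAS in the GDP state, with 4% DMSO at pH 7.4. Compounds were flowed at 100 µL/min in 75 s steps of rising concentration over captured biotin-Avi RAS at 30°C. Sensorgrams were fitted 1:1 for KD.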

[1] = molecular target: GDP-bound NRAS wild-type protein (Homo sapiens, UniProt P01111); experiment: Binding to NRAS by surface plasmon resonance (SPR), KD and KD ratio to KRAS
Method in brief: as §1

[2] = test system: human lung cancer strain NCI-H441; type: cell-based
Method in brief: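 Step one: dispense the test compound in serial DMSO dilutions. Step three: add the reagent and measure […].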

[3] = ratio of KD for HRAS wild-type protein to KD for KRAS
[4] = ratio of KD for GDP-bound NRAS wild-type protein to KD for KRAS
[5] = ratio of KD value for HRAS wild-type protein to KD value for KRAS (SPR)
[6] = ratio of KD value for GDP-bound NRAS wild-type protein to KD value for KRAS (SPR)
[7] = ratio of the KD value with respect to HRAS wild-type protein to the KD value with respect to KRAS
[8] = ratio of the KD value with respect to GDP-bound NRAS wild-type protein to the KD value with respect to KRAS

HRAS wild-type protein, sequence (P01112 whole entry): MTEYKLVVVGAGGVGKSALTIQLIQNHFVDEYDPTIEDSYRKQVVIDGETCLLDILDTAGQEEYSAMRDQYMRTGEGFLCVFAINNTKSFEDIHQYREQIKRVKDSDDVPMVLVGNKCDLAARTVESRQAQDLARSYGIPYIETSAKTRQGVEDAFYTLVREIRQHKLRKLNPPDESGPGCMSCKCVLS
GDP-bound NRAS wild-type protein, sequence (P01111 whole entry): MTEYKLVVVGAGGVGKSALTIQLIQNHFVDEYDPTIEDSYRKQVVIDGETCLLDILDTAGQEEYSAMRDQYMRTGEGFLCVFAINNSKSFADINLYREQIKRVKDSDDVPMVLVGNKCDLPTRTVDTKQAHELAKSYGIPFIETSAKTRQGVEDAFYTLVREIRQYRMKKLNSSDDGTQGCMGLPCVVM

| IC50 [2] | SMILES | HRAS /KRAS (HRAS wild-type protein; [3]) | NRAS /KRAS [1, 4] | HRAS /KRAS (HRAS wild-type protein; [5]) | NRAS /KRAS [1, 6] | HRAS /KRAS (HRAS wild-type protein; [7]) | NRAS /KRAS [1, 8] |
| --- | --- | --- | --- | --- | --- | --- | --- |
| 1.9 nM | CCCN1C(=O)[C@@H]2CCN2C(=O)[C@H](C)N(C)C(=O)[C@H]([C@@H](C)CC)NC(=O)[C@H](CC(C)C)N(C)C(=O)C[C@@H](C(=O)N2CCOCC2)N(C)C(=O)[C@H](C2CCCC2)N(C)C(=O)C2(CCCC2)NC(=O)[C@@H]2C[C@@H](OC)CN2C(=O)[C@H](CCc2ccc(C(F)(F)F)c(Cl)c2)NC(=O)CN(C)C(=O)[C@@H]1Cc1ccc(C(F)(F)F)cc1 [PP0283] ([NMeL]I[NMeA][Aze][NPrPhe(4-CF3)][Sar][hPhe(3-Cl-4-CF3)][Hyp](Me)[Ac5c][NMeGly(cPent)][NMeD]-Morpholide; lactam N-11) | C (A compound having a KD ratio of 0.1 or more and less than 3 is denoted as C) | C (A compound having a KD ratio of 0.1 or more and less than 3 is denoted as C) | – | – | – | – |
| 13.8 nM | CCCN1C(=O)CN(C)C(=O)[C@@H]2CCN2C(=O)[C@H]([C@@H](C)CC)NC(=O)[C@H](CC(C)C)N(C)C(=O)C[C@@H](C(=O)N2CCOCC2)N(C)C(=O)[C@H](C2CCCC2)N(C)C(=O)C2(CCCC2)NC(=O)[C@@H]2C[C@@H](OCC)CN2C(=O)[C@H](CCc2ccc(C(F)(F)F)c(Cl)c2)NC(=O)CN(C)C(=O)[C@@H]1Cc1ccc(C(F)(F)F)cc1 [PP0310] ([NMeL]I[Aze][Sar][NPrPhe(4-CF3)][Sar][hPhe(3-Cl-4-CF3)][Hyp](Et)[Ac5c][NMeGly(cPent)][NMeD]-Morpholide; lactam N-11) | C (A compound having a KD ratio of 0.1 or more and less than 3 is denoted as C) | B (a compound having 3 or more and less than 10 is denoted as B) | – | – | – | – |
| 2 nM | CCCOC[C@H]1C(=O)N[C@@H]([C@@H](C)CC)C(=O)N(C)CC(=O)N(C)[C@H]2C/C=C\CCN(C2=O)[C@@H](Cc2ccc(C(F)(F)F)cc2)C(=O)N(C)CC(=O)N[C@@H](CCc2ccc(C(F)(F)F)c(OC)c2)C(=O)N2C[C@H](OCC)C[C@H]2C(=O)NC2(CC(C)(C)C2)C(=O)N(C)[C@@H](C2CCCC2)C(=O)N(C)[C@H](C(=O)N(C)C)CC(=O)N1C [PP1657] | – | – | B (a compound having 3 or more and less than 10 is denoted as B) | A (a compound having 10 or more and less than 20 is denoted as A) | – | – |
| 20.2 nM | CCO[C@@H]1C[C@H]2C(=O)NC3(CCC3)C(=O)N(C)[C@@H](C3CCCC3)C(=O)N(C)[C@H](CC)CC(=O)N(C)[C@@H](CC)C(=O)N[C@@H]([C@@H](C)CC)C(=O)N(C)CC(=O)N(C)[C@H]3C/C=C\CCN(C3=O)[C@@H](Cc3ccc(C(F)(F)F)cc3)C(=O)N(C)CC(=O)N[C@@H](CCc3cc(F)c(C(F)(F)F)c(F)c3)C(=O)N2C1 [PP1625] | – | – | B (a compound having 3 or more and less than 10 is denoted as B) | B (a compound having 3 or more and less than 10 is denoted as B) | – | – |
| 86.8 nM | CCO[C@@H]1C[C@H]2C(=O)NC3(CC(C)(C)C3)C(=O)N(C)[C@@H](C(CC)CC)C(=O)N3CCC[C@@H]3CC(=O)N(C)[C@@H](CC3CC3)C(=O)N[C@@H]([C@@H](C)CC)C(=O)N(C)CC(=O)N(C)[C@H]3C/C=C\CCN(C3=O)[C@@H](Cc3ccc(C(F)(F)F)cc3)C(=O)N(C)CC(=O)N[C@@H](CCc3cc(F)c(C(F)(F)F)c(F)c3)C(=O)N2C1 [PP1610] | – | – | A (a compound having 10 or more and less than 20 is denoted as A) | A (a compound having 10 or more and less than 20 is denoted as A) | – | – |
| 6.9 nM | CCO[C@@H]1C[C@H]2C(=O)N(C)C3(CCC3)C(=O)N(C)[C@@H](C3CCCC3)C(=O)N(C)[C@H](C(=O)N(C)C)CC(=O)N(C)[C@@H](CC)C(=O)N[C@@H]([C@@H](C)CC)C(=O)N3CCC[C@H]3C(=O)N(C)[C@H]3C/C=C\CCN(C3=O)[C@@H](Cc3ccc(C)cc3)C(=O)N(C)CC(=O)N[C@@H](CCc3cc(F)c(C(F)(F)F)c(F)c3)C(=O)N2C1 [PP1785] | – | – | A (a compound having 10 or more and less than 20 is denoted as A) | A (a compound having 10 or more and less than 20 is denoted as A) | – | – |
| 83 nM | CC(C)C[C@H]1C(=O)N[C@@H](C2CCC2)C(=O)N(C)CC(=O)N(C)[C@H]2CCCCCN(C2=O)[C@@H](Cc2ccc(C(F)(F)F)cc2)C(=O)N(C)CC(=O)N[C@@H](CCc2cc(F)c(C(F)(F)F)c(F)c2)C(=O)N2CCC[C@H]2C(=O)NC2(CCCC2)C(=O)N(C)[C@@H](C2CCCC2)C(=O)N(C)[C@H](C(=O)N2CCOCC2)CC(=O)N1C [PP0522] | – | – | – | – | B (a compound having 3 or more and less than 10 is denoted as B) | B (a compound having 3 or more and less than 10 is denoted as B) |
| 5390 nM | CCO[C@@H]1C[C@H]2C(=O)NC3(CCC3)C(=O)N(C)[C@@H](C3CCCC3)C(=O)N(C)[C@H](C(=O)N(C)C)CC(=O)N(C)C[C@@H](C)C(=O)N[C@@H]([C@@H](C)CC)C(=O)N(C)CC(=O)N(C)[C@H]3CCCCN(C3=O)[C@@H](Cc3ccc(C(F)(F)F)cc3)C(=O)N(C)CC(=O)N[C@@H](CCc3cc(F)c(C(F)(F)F)c(F)c3)C(=O)N2C1 [PP0706] | – | – | – | – | B (a compound having 3 or more and less than 10 is denoted as B) | B (a compound having 3 or more and less than 10 is denoted as B) |
| 30.9 nM | CCCN1C(=O)CN(C)C(=O)CN(CC)C(=O)[C@H]([C@@H](C)CC)NC(=O)[C@H](CC(C)C)N(C)C(=O)C[C@@H](C(=O)N(C)C)NC(=O)[C@H](C2CCCC2)N(C)C(=O)C2(CCCC2)NC(=O)[C@@H]2C[C@@H](OCC)CN2C(=O)[C@H](CCc2ccc(C(F)(F)F)c(Cl)c2)NC(=O)CN(C)C(=O)[C@@H]1Cc1ccc(C(F)(F)F)cc1 [PP0371] ([NMeL]I[NEtG][Sar][NPrPhe(4-CF3)][Sar][hPhe(3-Cl-4-CF3)][Hyp](Et)[Ac5c][NMeGly(cPent)]D-NMe2; lactam N-11) | C (A compound having a KD ratio of 0.1 or more and less than 3 is denoted as C) | B (a compound having 3 or more and less than 10 is denoted as B) | – | – | – | – |
| 11.1 nM | CC[C@H](C)[C@@H]1NC(=O)[C@H](CC(C)C)N(C)C(=O)C[C@@H](C(=O)N(C)C)N(C)C(=O)[C@H](C2CCCC2)N(C)C(=O)C2(CCC2)NC(=O)[C@@H]2C[C@@H](C)CN2C(=O)[C@H](CCc2cc(F)c(C(F)(F)F)c(F)c2)NC(=O)CN(C)C(=O)[C@H](Cc2ccc(C)cc2)N2CC/C=C\C[C@@H](C2=O)N(C)C(=O)CN(C)C1=O [PP1866] | – | – | B (a compound having 3 or more and less than 10 is denoted as B) | A (a compound having 10 or more and less than 20 is denoted as A) | – | – |
| 13.4 nM | CCCN(C)C(=O)[C@@H]1CC(=O)N(C)[C@@H](CCOC)C(=O)N[C@@H]([C@@H](C)CC)C(=O)N(C)CC(=O)N(C)[C@H]2C/C=C\CCN(C2=O)[C@@H](Cc2ccc(C(F)(F)F)cc2)C(=O)N(C)CC(=O)N[C@@H](CCc2ccc(C(F)(F)F)c(OC)c2)C(=O)N2C[C@H](OCC)C[C@H]2C(=O)NC2(CC(C)(C)C2)C(=O)N(C)[C@@H](C2CCCC2)C(=O)N1C [PP1975] | – | – | – | – | A (a compound having 10 or more and less than 20 is denoted as A) | A (a compound having 10 or more and less than 20 is denoted as A) |
| 18.3 nM | CCCN1C(=O)CN(C)C(=O)CN(C)C(=O)[C@H]([C@@H](C)CC)NC(=O)[C@H](CC(C)C)N(C)C(=O)C[C@@H](C(=O)N2CCOCC2)N(C)C(=O)[C@H](C2CCCC2)N(C)C(=O)C2(CCCC2)NC(=O)CN(CC)C(=O)[C@H](CCc2ccc(C(F)(F)F)c(Cl)c2)NC(=O)CN(C)C(=O)[C@@H]1Cc1ccc(C(F)(F)F)cc1 [PP0144] ([NMeL]I[Sar][Sar][NPrPhe(4-CF3)][Sar][hPhe(3-Cl-4-CF3)][NEtG][Ac5c][NMeGly(cPent)][NMeD]-Morpholide; lactam N-11) | C (A compound having a KD ratio of 0.1 or more and less than 3 is denoted as C) | B (a compound having 3 or more and less than 10 is denoted as B) | – | – | – | – |
| 27.3 nM | CCCO[C@@H]1C[C@H]2C(=O)NC3(CC(C)(C)C3)C(=O)N(C)[C@@H](C3CCCC3)C(=O)N(C)[C@H](C(=O)N3CCCC3)CC(=O)N(C)[C@H]3CCCc4ccc(cc4)C[C@@H](C(=O)N(C)CC(=O)N[C@@H](CCc4ccc(C(F)(F)F)c(OC)c4)C(=O)N2C1)N1CC/C=C\C[C@@H](C1=O)N(C)C(=O)CN(C)C(=O)[C@H]([C@@H](C)CC)NC3=O [PP3065] | B (a compound having 3 or more and less than 10 is denoted as B) | A (a compound having 10 or more and less than 20 is denoted as A) | – | – | – | – |
| 57.8 nM | CCCN1C(=O)CN(C)C(=O)CN(C)C(=O)[C@H]([C@@H](C)CC)NC(=O)[C@H](CC(C)C)N(C)C(=O)C[C@@H](C(=O)N2CCOCC2)N(C)C(=O)[C@H](C(CC)CC)N(C)C(=O)C2(CCC2)NC(=O)[C@@H]2CCCN2C(=O)[C@H](CCc2ccc(C(F)(F)F)c(Cl)c2)NC(=O)CN(C)C(=O)[C@@H]1Cc1ccc(C(F)(F)F)cc1 [PP1958] ([NMeL]I[Sar][Sar][NPrPhe(4-CF3)][Sar][hPhe(3-Cl-4-CF3)]P[Ac4c][NMeNva(3-Et)][NMeD]-Morpholide; lactam N-11) | – | – | – | – | B (a compound having 3 or more and less than 10 is denoted as B) | B (a compound having 3 or more and less than 10 is denoted as B) |
